Results on 1 compound are retold here after US20040067531A1, “Methods of modulating protein tyrosine kinase function with substituted indolinone compounds” (SUGEN, INC., priority 1997, published 2004).

For orientation: IC50 means the concentration needed to halve the response being measured.

Experiment [1] concerns 3T3 cell line genetically engineered to express human PDGF-R. Nature of the experiment: PDGF-induced BrdU incorporation assay. Format: cell-based. The settings on record: NIH3T3; 3T3 cells expressing human PDGF-R, PDGF 3.8 nM; read-out: PDGF-Induced BrdU Incorp. IC50. The protocol:
(1) PDGF: human PDGF B/B; 1276-956, Boehringer Mannheim, Germany
(8) 3T3 cell line genetically engineered to express human PDGF-R.
1. Cells were seeded at 8000 cells/well in DMEM, 10% CS, 2 mM Gln in a 96 well plate. Cells were incubated overnight at 37° C. in 5% CO2.
2. After 24 hours, the cells were washed with PBS, and then were serum starved in serum free medium (0% CS DMEM with 0.1% BSA) for 24 hours.
3. On day 3, ligand (PDGF=3.8 nM, prepared in DMEM with 0.1% BSA) and test compounds were added to the cells simultaneously. The negative control wells received serum free DMEM with 0.1% BSA only; the positive control cells received the ligand (PDGF) but no test compound. Test compounds were prepared in serum free DMEM with ligand in a 96 well plate, and serially diluted for 7 test concentrations.
4. After 20 hours of ligand activation, diluted BrdU labeling reagent (1:100 in DMEM, 0.1% BSA) was added and the cells were incubated with BrdU (final concentration=10 μM) for 1.5 hours.
5. After incubation with labeling reagent, the medium was removed by decanting and tapping the inverted plate on a paper towel. FixDenat solution was added (50 μL/well) and the plates were incubated at room temperature for 45 minutes on a plate shaker.
6. The FixDenat solution was thoroughly removed by decanting and tapping the inverted plate on a paper towel. Milk was added (5% dehydrated milk in PBS, 200 μL/well) as a blocking solution and the plate was incubated for 30 minutes at room temperature on a plate shaker.
7. The blocking solution was removed by decanting and the wells were washed once with PBS. Anti-BrdU-POD solution (1:100 dilution in PBS, 1% BSA) was added (100 μL/well), and the plate was incubated for 90 minutes at room temperature on a plate shaker.
8. The antibody conjugate was thoroughly removed by decanting and rinsing the wells 5 times with PBS, and the space was dried by inverting and tapping on a paper towel.
9. TMB substrate solution was added (100 μL/well) and incubated for 20 minutes at room temperature on a plate shaker until color development was sufficient for photometric detection.
10. The absorbance of the samples were measured at 410 nm (in “dual wavelength” mode with a filter reading at 490 nm, as a reference wavelength) on a Dynatech ELISA plate reader.
The IC50 values were measured for several of the compounds of the invention. These values are depicted in Table 10.
In general terms: Uptake of a labelled nucleoside into DNA is a usual measure of proliferation.

Experiment [2] deals with T1, FLK-1 receptor (Mus musculus, UniProt P35918).
T1 construct: expressed in transfected cells; host or cells: NIH3T3 C7#3
T1 sequence (P35918 20-1345): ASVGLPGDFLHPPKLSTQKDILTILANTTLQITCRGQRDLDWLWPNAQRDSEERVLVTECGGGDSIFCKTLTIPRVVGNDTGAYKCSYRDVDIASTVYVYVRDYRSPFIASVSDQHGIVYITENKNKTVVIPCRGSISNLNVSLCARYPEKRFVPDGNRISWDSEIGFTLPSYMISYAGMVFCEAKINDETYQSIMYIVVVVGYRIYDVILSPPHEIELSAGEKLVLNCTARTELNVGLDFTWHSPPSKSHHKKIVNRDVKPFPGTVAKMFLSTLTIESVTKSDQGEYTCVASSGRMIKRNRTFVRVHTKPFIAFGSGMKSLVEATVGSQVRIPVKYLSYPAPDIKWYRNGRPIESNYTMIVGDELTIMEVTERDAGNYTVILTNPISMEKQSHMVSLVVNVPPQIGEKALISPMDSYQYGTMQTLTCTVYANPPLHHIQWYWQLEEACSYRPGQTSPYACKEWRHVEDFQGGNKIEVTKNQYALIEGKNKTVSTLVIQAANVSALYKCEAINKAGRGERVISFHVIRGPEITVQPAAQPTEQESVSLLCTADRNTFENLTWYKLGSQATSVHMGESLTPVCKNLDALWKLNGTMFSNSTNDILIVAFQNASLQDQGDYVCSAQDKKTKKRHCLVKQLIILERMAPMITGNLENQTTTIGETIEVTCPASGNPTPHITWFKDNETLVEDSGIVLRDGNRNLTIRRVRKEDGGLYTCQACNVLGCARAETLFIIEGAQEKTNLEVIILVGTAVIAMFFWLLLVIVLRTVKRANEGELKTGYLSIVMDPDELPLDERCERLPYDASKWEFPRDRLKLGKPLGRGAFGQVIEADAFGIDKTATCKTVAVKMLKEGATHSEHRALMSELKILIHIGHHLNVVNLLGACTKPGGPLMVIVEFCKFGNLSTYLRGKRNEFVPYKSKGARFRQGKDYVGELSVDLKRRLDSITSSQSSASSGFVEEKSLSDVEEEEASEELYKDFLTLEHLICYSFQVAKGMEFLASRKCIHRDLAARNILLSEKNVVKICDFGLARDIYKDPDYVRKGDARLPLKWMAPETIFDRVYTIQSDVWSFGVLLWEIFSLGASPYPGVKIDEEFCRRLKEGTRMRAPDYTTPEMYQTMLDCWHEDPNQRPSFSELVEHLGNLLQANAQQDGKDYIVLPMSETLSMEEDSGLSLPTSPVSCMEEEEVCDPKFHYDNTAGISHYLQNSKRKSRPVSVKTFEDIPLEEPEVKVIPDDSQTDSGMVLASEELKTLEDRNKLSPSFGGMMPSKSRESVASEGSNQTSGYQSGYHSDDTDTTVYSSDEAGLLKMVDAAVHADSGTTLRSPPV
Nature of the experiment: ELISA assay measuring the kinase activity of the FLK-1 receptor in cells engineered to express FLK-1. Conditions: NIH3T3 C7#3 FLK-1 expressing cells, VEGF stimulation, phosphotyrosine ELISA. Format: cell-based. The protocol: An ELISA assay was conducted to measure the kinase activity of the FLK-1 receptor and more specifically, the inhibition or activation of TK activity on the FLK-1 receptor. Specifically, the following assay was conducted to measure kinase activity of the FLK-1 receptor in cells genetically engineered to express FLK-1.
(11) NIH3T3 C7#3 Cells (FLK-1 expressing cells);
The following protocol was used for conducting the assay:
1. Coat Corning 96-well elisa plates with 1.0 μg per well Cappel Anti-rabbit IgG antibody in 0.1 M Na2CO3 pH 9.6. Bring final volume to 150 μL per well. Coat plates overnight at 4° C. Plates can be kept up to two weeks when stored at 4° C.
2. Grow cells in Growth media (DMEM, supplemental with 2.0 mM L-Glutamine, 10% FBS) in suitable culture dishes until confluent at 37° C., 5% CO2.
3. Harvest cells by trypsinization and seed in Corning 25850 polystyrene 96-well roundbottom cell plates, 25.000 cells/well in 200 μL of growth media.
4. Grow cells at least one day at 37° C., 5% CO2.
5. Wash cells-with D-PBS 1×.
6. Add 200 μL/well of starvation media (DMEM, 2.0 mM 1-Glutamine, 0.1% FBS). Incubate overnight at 37° C., 5% CO2.
7. Dilute Compounds 1:20 in polypropylene 96 well plates using starvation media. Dilute dimethylsulfoxide 1:20 for use in control wells.
8. Remove starvation media from 96 well cell culture plates and add 162 μL of fresh starvation media to each well.
9. Add 18 μL of 1:20 diluted Compound dilution (from step 7) to each well plus the 1:20 dimethylsulfoxide dilution to the control wells (+/− VEGF), for a final dilution of 1:200 after cell stimulation. Final dimethylsulfoxide is 0.5%. Incubate the plate at 37° C., 5% CO2 for two hours.
10. Remove unbound antibody from ELISA plates by inverting plate to remove liquid. Wash 3 times with TBSW+0.5% ethanolamine, pH 7.0. Pat the plate on a paper towel to remove excess liquid and bubbles.
11. Block plates with TBSW+0.5% Ethanolamine, pH 7.0, 150 μL per well. Incubate plate thirty minutes while shaking on a microliter plate shaker.
12. Wash plate 3 times as described in step 10.
13. […] Bring final volume to 150 μL/well with TBSW+0.5% ethanolamine pH 7.0. Incubate plate for thirty minutes while shaking.
14. Add 180 μL starvation medium to the cells and stimulate cells with 20 μL/well 10.0 mM sodium ortho vanadate and 500 ng/mL VEGF (resulting in a final concentration of 1.0 mM sodium ortho vanadate and 50 ng/mL VEGF per well) for eight minutes at 37° C., 5% CO2. Negative control wells receive only starvation medium.
15. After eight minutes, media should be removed from the cells and washed one time with 200 μL/well PBS.
16. Lyse cells in 150 μL/well HNTG while shaking at room temperature for five minutes. HNTG formulation includes sodium ortho vanadate, sodium pyro phosphate and EDTA.
17. Wash ELISA plate three times as described in step 10.
18. Transfer cell lysates from the cell plate to ELISA plate and incubate while shaking for two hours. To transfer cell lysate pipette up and down while scrapping the wells.
19. Wash plate three times as described in step 10.
20. Incubate ELISA plate with 0.02 μg/well UB40 in TBSW+05% ethanolamine. Bring final volume to 150 μL/well. Incubate while shaking for 30 minutes.
21. Wash plate three times as described in step 10.
22. Incubate ELISA plate with 1:10,000 diluted EIA grade goat anti-mouse IgG conjugated horseradish peroxidase in TBSW+0.5% ethanolamine, pH 7.0. Bring final volume to 150 μL/well. Incubate while shaking for thirty minutes.
23. Wash plate as described in step 10.
24. Add 100 μL of ABTS/H2O2 solution to well. Incubate ten minutes while shaking.
25. Add 100 μL of 0.2 M HCl for 0.1 M HCl final to stop the color development reaction. Shake 1 minute at room temperature. Remove bubbles with slow stream of air and read the ELISA plate in an ELISA plate reader at 410 nm.
The IC50 values were measured for several of the compounds of the invention.
(In general: ELISA stands for enzyme-linked immunosorbent assay.)

As for `Cc1c[nH]c(C=C2C(=O)Nc3cc(Cl)ccc32)c1CCC(=O)O` [IN-030, 3-[2-(6-Chloro-2-oxo-1,2-dihydro-indol-3-ylidenemethyl)-4-methyl-1H-pyrrol-3-yl]-propionic acid], the IC50 in experiment [1] stood at 7.9 µM; in experiment [2], 0.19 µM.
